The values that follow come from PMC7730458, “Rational Computational Design of Fourth-Generation EGFR Inhibitors to Combat Drug-Resistant Non-Small Cell Lung Cancer” (International Journal of Molecular Sciences, 2020).

For test [1], the system named is Ba/F3 cell lines with the wild type EGFR. The test is described as follows: cell proliferation inhibition assay, Ba/F3 wild-type EGFR. To be noted: Mus musculus, BaF3, 72 h, read-out: IC50 Ba/F3.
Protocol: (§3) The cells were treated with various concentrations of the compounds in duplicate. After 72 h, the fluorescence signals were measured at an excitation wavelength of 540 nm and an emission wavelength of 590 nm using a microplate reader. More specifically, the number of living cells was determined with CellTiter-Glo® Luminescent Cell Viability Assay (Promega).
In test [2] the test system is Ba/F3 cell lines with the d746-750/T790M/C797S mutant EGFR. The experiment in a line: cell proliferation inhibition assay, Ba/F3 triple mutant EGFR. Particulars: for IC50: Mus musculus, BaF3, 72 h, read-out: IC50 Ba/F3^d746-750/T790M/C797S; for Selectivity: Table 4, Ba/F3 wild type IC50 over mutant IC50.
Protocol: as §3
The target of test [3] is T1, d746-750/T790M/C797S mutant EGFR (Homo sapiens, UniProt P00533, C797S/DEL746-750/T790M).
T1 construct: purchased Reaction Biology Corp. (Malvern, PA, USA)
The experiment in a line: radiometric ([γ-33P]-ATP) kinase assay, triple mutant EGFR. To be noted: for Selectivity Index (IC50^WT/IC50^mutant): ratio of IC50 for the wild type to that for the triple mutant; for Selectivity: wild type IC50 over triple mutant IC50. The class given is biochemical. On the procedure: (§1) This small number of virtual hits exemplifies the difficulty in discovering the fourth-generation inhibitors that are specific for the triple mutant. This can be understood in the context of the high structural similarity between the mutant and the wild type. All virtual hits were assessed for the presence of inhibitory activity against the d746-750/T790M/C797S mutant and the wild type via in vitro radiometric ([γ-^33P]-ATP) kinase assays (Reaction Biology Corp., Malvern, PA, USA). As a consequence of virtual and experimental screening, four molecules were identified as low-micromolar inhibitors of d746-750/T790M/C797S mutant. Actually, none of the four molecules have previously been reported as EGFR kinase inhibitors. With respect to disproving the possibility of acting as a false positive in enzyme inhibition assays, all four inhibitors were examined in the public ZINC database to confirm the lack of any substructure in pan assay interference compounds (PAINS).
(§2) The inhibitory activities of all compounds with respect to the wild type and the d746-750/T790M/C797S mutant of EGFR were measured by Reaction Biology Corp. (Malvern, PA, USA) using the radiometric kinase assays ([γ-^33P]-ATP). Briefly, the enzymatic reaction mixtures contained an artificial substrate peptide, poly-Glu-Tyr (4:1) in freshly prepared base reaction buffer (20 mM HEPES of pH 7.5, 10 mM MgCl2, 1 mM EGTA, 0.02% Brij-35, 0.02 mg/mL BSA, 0.1 mM Na3VO4, 2 mM DTT, 1% DMSO). Wild-type and mutant EGFR were delivered into the substrate solution and gently mixed. Each inhibitor in 100% DMSO in a serial dilution was then delivered to the reaction mixture using the acoustic dispensing system (Echo550; nanoliter range). To initiate the enzymatic reaction, ^33P-ATP with a specific activity of 10 μCi/μL was added into the reaction mixture, and the mixture was further incubated for 2 h at room temperature. Radioactivity was then monitored by the filter-binding method after reactions were spotted onto P81 ion exchange paper and the filters were washed extensively in 0.75% phosphoric acid. Kinase activity data were expressed as the percent remaining kinase activity in test samples compared to vehicle (dimethyl sulfoxide) reactions. IC50 values and curve fits were calculated with Prism Software (GraphPad Software) at 10 different concentrations. Staurosporine was employed as the positive control in this study.

Another test deals with T2, wild type EGFR (Homo sapiens, UniProt P00533).
T2 construct: purchased Reaction Biology Corp. (Malvern, PA, USA)
The experiment in a line: radiometric ([γ-33P]-ATP) kinase assay, wild-type EGFR. It counts as biochemical. As for the experimental part:
as §1, §2

Where [4] appears, read: Table 1, mean ± standard deviations of two experiments, read-out: IC50 d746-750/T790M/C797S.
The mark [5] stands for this setting: Table 1, mean ± standard deviations of two experiments, read-out: IC50 Wild Type.
Setting [6] is: Table 2, derivatives of 1, mean ± SD of two experiments, read-out: IC50 EGFR^d746-750/T790M/C797S.
Where [7] appears, read: Table 2, derivatives of 1, wild type, mean ± SD of two experiments, read-out: IC50 EGFR.
Setting [8] is: Table 3, derivatives of 2, mean ± SD of two experiments, read-out: IC50 EGFR^d746-750/T790M/C797S.
Where [9] appears, read: Table 3, derivatives of 2, wild type, mean ± SD of two experiments, read-out: IC50 EGFR.

Each structure is given as a SMILES string. Like-named read-outs stand apart in the source and are kept apart here.

T1 sequence (P00533 with tags, fused parts or gaps DEL746-750/T790M/C797S): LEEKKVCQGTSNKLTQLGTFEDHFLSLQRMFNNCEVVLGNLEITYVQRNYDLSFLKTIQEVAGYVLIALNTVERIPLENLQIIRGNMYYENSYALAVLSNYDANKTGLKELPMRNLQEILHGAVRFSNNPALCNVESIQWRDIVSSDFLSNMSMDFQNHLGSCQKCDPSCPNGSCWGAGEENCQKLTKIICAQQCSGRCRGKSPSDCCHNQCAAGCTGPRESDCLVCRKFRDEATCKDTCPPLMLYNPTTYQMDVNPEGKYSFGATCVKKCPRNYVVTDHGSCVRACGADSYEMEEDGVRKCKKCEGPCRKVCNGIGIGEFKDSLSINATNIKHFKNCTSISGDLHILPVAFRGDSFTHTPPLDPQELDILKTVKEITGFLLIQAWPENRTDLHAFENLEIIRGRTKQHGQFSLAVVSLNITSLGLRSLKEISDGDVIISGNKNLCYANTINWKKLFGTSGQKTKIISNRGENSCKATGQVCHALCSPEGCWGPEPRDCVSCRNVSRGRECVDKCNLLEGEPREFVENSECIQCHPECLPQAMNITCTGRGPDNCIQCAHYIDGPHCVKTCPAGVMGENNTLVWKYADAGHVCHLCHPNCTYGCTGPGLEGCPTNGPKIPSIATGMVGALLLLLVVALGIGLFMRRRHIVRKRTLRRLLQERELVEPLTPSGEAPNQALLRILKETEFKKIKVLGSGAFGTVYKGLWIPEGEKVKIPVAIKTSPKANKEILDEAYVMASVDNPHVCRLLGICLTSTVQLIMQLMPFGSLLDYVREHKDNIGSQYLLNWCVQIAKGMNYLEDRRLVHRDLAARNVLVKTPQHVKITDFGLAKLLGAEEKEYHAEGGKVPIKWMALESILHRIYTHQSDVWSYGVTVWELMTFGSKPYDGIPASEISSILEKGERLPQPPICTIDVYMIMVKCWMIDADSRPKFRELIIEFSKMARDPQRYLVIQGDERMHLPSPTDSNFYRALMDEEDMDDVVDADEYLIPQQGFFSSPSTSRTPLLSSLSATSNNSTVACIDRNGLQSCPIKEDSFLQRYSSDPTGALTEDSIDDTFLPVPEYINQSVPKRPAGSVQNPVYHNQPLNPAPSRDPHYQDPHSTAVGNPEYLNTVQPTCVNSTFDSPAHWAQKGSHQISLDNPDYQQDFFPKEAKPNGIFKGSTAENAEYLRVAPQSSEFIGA
T2 sequence (P00533 25-1210): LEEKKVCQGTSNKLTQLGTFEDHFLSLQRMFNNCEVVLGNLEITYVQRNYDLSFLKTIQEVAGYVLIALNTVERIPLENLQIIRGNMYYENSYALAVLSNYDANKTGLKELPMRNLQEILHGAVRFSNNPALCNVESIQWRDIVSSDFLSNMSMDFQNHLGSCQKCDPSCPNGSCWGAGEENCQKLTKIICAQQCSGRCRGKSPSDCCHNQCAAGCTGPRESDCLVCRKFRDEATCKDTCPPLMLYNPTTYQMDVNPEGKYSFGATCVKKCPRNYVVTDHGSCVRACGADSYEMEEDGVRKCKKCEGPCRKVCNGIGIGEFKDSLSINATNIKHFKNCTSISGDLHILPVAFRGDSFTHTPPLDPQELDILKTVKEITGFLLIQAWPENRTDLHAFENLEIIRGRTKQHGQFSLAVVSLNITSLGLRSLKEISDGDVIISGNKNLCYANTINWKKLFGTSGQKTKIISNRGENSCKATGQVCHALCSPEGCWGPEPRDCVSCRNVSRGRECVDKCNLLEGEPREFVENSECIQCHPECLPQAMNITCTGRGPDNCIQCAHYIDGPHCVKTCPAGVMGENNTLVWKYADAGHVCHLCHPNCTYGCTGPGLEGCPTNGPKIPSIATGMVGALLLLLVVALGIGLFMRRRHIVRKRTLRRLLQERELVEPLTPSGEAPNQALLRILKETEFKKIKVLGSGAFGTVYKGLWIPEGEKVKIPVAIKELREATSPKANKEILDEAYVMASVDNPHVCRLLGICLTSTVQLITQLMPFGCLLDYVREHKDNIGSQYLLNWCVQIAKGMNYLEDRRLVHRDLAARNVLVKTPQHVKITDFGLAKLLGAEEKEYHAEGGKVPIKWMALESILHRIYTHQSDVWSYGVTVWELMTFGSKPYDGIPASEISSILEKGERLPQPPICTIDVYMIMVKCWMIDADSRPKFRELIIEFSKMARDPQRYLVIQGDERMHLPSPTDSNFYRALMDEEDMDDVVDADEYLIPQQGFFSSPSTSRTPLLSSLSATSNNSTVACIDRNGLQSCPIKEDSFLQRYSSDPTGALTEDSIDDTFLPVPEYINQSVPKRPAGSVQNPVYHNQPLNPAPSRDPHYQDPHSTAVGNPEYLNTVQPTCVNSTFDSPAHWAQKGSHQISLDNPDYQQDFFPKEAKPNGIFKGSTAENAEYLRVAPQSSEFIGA

For `COc1cc(N2CCC(N3CCN(C)CC3)CC2)ccc1Nc1ncc(Cl)c(Nc2ccccc2P(C)(C)=O)n1` [Brigatinib, reference compound], the IC50 in test [1] is 1.56 ± 0.45 µM; in test [2] it was 0.067 ± 0.014 µM. The compound further returned a Selectivity in test [2] of 23.3.

For `CC1CCCCN1Cc1c(O)ccc2c1O/C(=C\c1cc3ccccc3o1)C2=O` (stereo not shown) [Compound 1], the IC50 in test [3] (setting [4]) turned out to be 2.11 ± 0.56 µM; on wild type EGFR (setting [5]), 72.7 ± 4.8 µM. The “Selectivity Index (IC50^WT/IC50^mutant)” value in test [3] (Table 1) amounted to 34.5. The compound also showed a Selectivity in test [3] (Table 2) of 34.5.

Turning to `Oc1ccccc1-c1nc(NCCN2CCOCC2)c2ccccc2n1` [Compound 2], the figures for the IC50 (in test [3] (setting [4]); on wild type EGFR (setting [5])) were 1.73 ± 0.38 µM and 37.1 ± 2.3 µM, respectively. Moreover, the “Selectivity Index (IC50^WT/IC50^mutant)” value in test [3] (Table 1) came out at 21.4. In test [3] (Table 3), this compound came in with a Selectivity of 21.4.

For `COc1ccccc1Nc1nc(N)nc(-c2oc3ccccc3c2C)n1` [Compound 3], the results for the IC50 (in test [3] (setting [4]); on wild type EGFR (setting [5])) were 2.89 ± 0.91 µM and 35.5 ± 3.5 µM, respectively. For the same compound, the “Selectivity Index (IC50^WT/IC50^mutant)” value in test [3] (Table 1) worked out at 12.3.

For the compound `c1ccc(CNc2ncnc3oc(-c4ccccc4)c(-c4ccccc4)c23)cc1` [Compound 4], the IC50 is 0.802 ± 0.055 µM in test [3] (setting [4]) and 0.00588 ± 0.00098 µM at wild type EGFR (setting [5]). The “Selectivity Index (IC50^WT/IC50^mutant)” value in test [3] (Table 1) is recorded as 0.00733. Also, the “biochemical potency against the wild-type EGFR (in words)” value on wild type EGFR is reported as “nanomolar level”. Besides, the “higher inhibitory activity against the wild type than against the d746-750/T790M/C797S mutant” value on wild type EGFR (enzyme assays) worked out at 136 fold.

Consider `O=C1/C(=C/c2cc3ccccc3o2)Oc2c1ccc(O)c2CN1CCCCC1` [Compound 5, (Z)-2-(benzofuran-2-ylmethylene)-6-hydroxy-7-(piperidin-1-ylmethyl)benzofuran-3(2H)-one], for which the IC50 was 3.01 ± 0.73 µM in test [3] (setting [6]) and 68.7 ± 3.4 µM on wild type EGFR (setting [7]). This compound gave a Selectivity in test [3] (Table 2) of 22.8.

In the case of `CC1CCCN(Cc2c(O)ccc3c2O/C(=C\c2cc4ccccc4o2)C3=O)C1` (stereo not shown) [Compound 6, (Z)-2-(benzofuran-2-ylmethylene)-6-hydroxy-7-((3-methylpiperidin-1-yl)methyl)benzofuran-3(2H)-one], the IC50 was 1.94 ± 0.35 µM in test [3] (setting [6]) and 65.7 ± 6 µM on wild type EGFR (setting [7]). The compound also yielded a Selectivity in test [3] (Table 2) of 33.9.

Consider `CC1CCN(Cc2c(O)ccc3c2O/C(=C\c2cc4ccccc4o2)C3=O)CC1` [Compound 7, (Z)-2-(benzofuran-2-ylmethylene)-6-hydroxy-7-((4-methylpiperidin-1-yl)methyl)benzofuran-3(2H)-one], for which the IC50 was determined as 5.29 ± 1.8 µM in test [3] (setting [6]) and 78.7 ± 4.6 µM at wild type EGFR (setting [7]). Besides, the Selectivity in test [3] (Table 2) is on record as 14.8.

In the case of `COc1ccc2oc(/C=C3\Oc4c(ccc(O)c4CN4CCCC(C)C4)C3=O)cc2c1` (stereo not shown) [Compound 8, (Z)-6-hydroxy-2-((5-methoxybenzofuran-2-yl)methylene)-7-((3-methylpiperidin-1-yl)methyl)benzofuran-3(2H)-one], the figures for the IC50 (in test [3] (setting [6]); on wild type EGFR (setting [7])) were 20.1 ± 7.2 µM and above 100 µM, respectively. The Selectivity in test [3] (Table 2) is on record as above 4.98.

Take `O=C1/C(=C/c2cc3ccccc3o2)Oc2c1ccc(O)c2CN1CCNCC1` [Compound 9, (Z)-2-(benzofuran-2-ylmethylene)-6-hydroxy-7-(piperazin-1-ylmethyl)benzofuran-3(2H)-one]: the IC50 in test [3] (setting [6]) worked out at 1.1 ± 0.36 µM; on wild type EGFR (setting [7]), 21.3 ± 6.3 µM.

As to `COc1ccc2oc(/C=C3\Oc4c(ccc(O)c4CN4CCNCC4)C3=O)cc2c1` [Compound 10, (Z)-6-hydroxy-2-((5-methoxybenzofuran-2-yl)methylene)-7-(piperazin-1-ylmethyl)benzofuran-3(2H)-one], the IC50 in test [3] (setting [6]) came to 1.63 ± 0.43 µM; at wild type EGFR (setting [7]) it was 36.8 ± 3.9 µM. This compound registered a Selectivity in test [3] (Table 2) of 22.6.

`O=C1/C(=C/c2cc3cc(O)ccc3o2)Oc2c1ccc(O)c2CN1CCNCC1` [Compound 11, (Z)-6-hydroxy-2-((5-hydroxybenzofuran-2-yl)methylene)-7-(piperazin-1-ylmethyl)benzofuran-3(2H)-one]: the IC50 worked out at 0.715 ± 0.242 µM in test [3] (setting [6]) and 1.04 ± 0.16 µM at wild type EGFR (setting [7]). Also, the Selectivity in test [3] (Table 2) was found to be 1.45.

`CCN(CC)CCCNc1nc(-c2ccccc2O)nc2ccccc12` [Compound 12, 2-(4-((3-(diethylamino)propyl)amino)quinazolin-2-yl)phenol]: the IC50 is 0.516 ± 0.206 µM in test [3] (setting [8]) and above 50 µM at wild type EGFR (setting [9]). The Selectivity in test [3] (Table 3) is given as above 96.9.

Regarding `CCN(CC)CCCNc1nc(-c2cc(C#N)ccc2O)nc2ccccc12` [Compound 13, 3-(4-((3-(diethylamino)propyl)amino)quinazolin-2-yl)-4-hydroxybenzonitrile], the IC50 in test [3] (setting [8]) was 0.0265 ± 0.0084 µM; on wild type EGFR (setting [9]), 8.45 ± 1.89 µM. Besides, the Selectivity in test [3] (Table 3) stood at 319.

Consider `Oc1ccccc1-c1nc(NCc2cscn2)c2ccccc2n1` [Compound 14, 2-(4-((thiazol-4-ylmethyl)amino)quinazolin-2-yl)phenol], for which the IC50 was 1.12 ± 0.21 µM in test [3] (setting [8]) and above 50 µM on wild type EGFR (setting [9]). In test [3] (Table 3), the Selectivity is recorded as above 44.6.

Compound `N#Cc1ccc(O)c(-c2nc(NCc3cc[nH]c3)c3ccccc3n2)c1` [Compound 16, 3-(4-(((1H-pyrrol-3-yl)methyl)amino)quinazolin-2-yl)-4-hydroxybenzonitrile] gave a Selectivity in test [3] (Table 3) above 693. Moreover, the IC50 at wild type EGFR (setting [9]) was above 50 µM.

Turning to `N#Cc1ccc(O)c(-c2nc(NCc3cocn3)c3ccccc3n2)c1` [Compound 17, 4-hydroxy-3-(4-((oxazol-4-ylmethyl)amino)quinazolin-2-yl)benzonitrile], the IC50 in test [3] (setting [8]) was 0.593 ± 0.076 µM; at wild type EGFR (setting [9]), above 50 µM. In test [3] (Table 3), the Selectivity is above 84.3.

In the case of `N#Cc1ccc(O)c(-c2nc(NCc3c[nH]cn3)c3ccccc3n2)c1` [Compound 18, 3-(4-(((1H-imidazol-4-yl)methyl)amino)quinazolin-2-yl)-4-hydroxybenzonitrile], the IC50 was above 5 µM in test [1], 0.78 ± 0.31 µM in test [2], 0.00747 ± 0.00039 µM in test [3] (setting [8]) and above 50 µM at wild type EGFR (setting [9]). Moreover, in test [2], the “antiproliferative activity against the d746-750/T790M/C797S mutant cell (in words)” value is given as “submicromolar level”. Besides, the Selectivity in test [2] is recorded as above 6.41; in test [3] (Table 3) it was above 6693. The “biochemical potency against the d746-750/T790M/C797S mutant (in words)” value in test [3] is “low-nanomolar level”. In test [3] (enzyme assays), the “selectivity in the inhibition of EGFR^d746-750/T790M/C797S over the wild type” value is “more than 6690 fold”.

As for `Cn1cnc(CNc2nc(-c3cc(C#N)ccc3O)nc3ccccc23)c1` [Compound 19, 4-hydroxy-3-(4-(((1-methyl-1H-imidazol-4-yl)methyl)amino)quinazolin-2-yl)benzonitrile], the IC50 in test [1] is 2.47 ± 0.89 µM; in test [2], 0.74 ± 0.22 µM; in test [3] (setting [8]) it was 0.00338 ± 0.00102 µM; at wild type EGFR (setting [9]) it was above 50 µM. Also, in test [2], the “antiproliferative activity against the d746-750/T790M/C797S mutant cell (in words)” value is “submicromolar level”. Also, the Selectivity in test [2] was 3.34; in test [3] (Table 3) it was above 14793. Further, the “biochemical potency against the d746-750/T790M/C797S mutant (in words)” value in test [3] is “low-nanomolar”. The “selectivity index / factor, triple mutant over the wild type” value in test [3] (enzyme assays) is “higher than 10^4”.

Turning to `N#Cc1ccc(O)c(-c2nc(NCCc3c[nH]cn3)c3ccccc3n2)c1` [Compound 20, 3-(4-((2-(1H-imidazol-4-yl)ethyl)amino)quinazolin-2-yl)-4-hydroxybenzonitrile], the “biochemical potency against the d746-750/T790M/C797S mutant (in words)” value in test [3] is listed as “low-nanomolar”. Also, the IC50 in test [3] (setting [8]) is 0.00484 ± 0.00063 µM; at wild type EGFR (setting [9]) it was above 50 µM. This compound showed a Selectivity in test [3] (Table 3) above 10331. Moreover, the “selectivity index / factor, triple mutant over the wild type” value in test [3] (enzyme assays) is reported as “higher than 10^4”.

On to `Cn1cnc(CNc2nc(-c3cc(C=O)ccc3O)nc3ccccc23)c1` [Compound 21, 4-hydroxy-3-(4-(((1-methyl-1H-imidazol-4-yl)methyl)amino)quinazolin-2-yl)benzaldehyde], for which the IC50 came to 0.00793 ± 0.00168 µM in test [3] (setting [8]) and 0.935 ± 0.173 µM on wild type EGFR (setting [9]). This compound also registered a Selectivity in test [3] (Table 3) of 118.
